Laboratory results published in ChEMBL document CHEMBL1201862, “PubChem BioAssay data set” (2004).
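Results reflect a 48-hour exposure of cells in 96-well plates to compound at five concentrations. Here, GI50 denotes the concentration required for 50% inhibition of growth.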 Active and inactive are the calls of the source. No stated cut-off is given here; in the data, active = GI50 up to about 1.1 µM and inactive = higher.

Tests used:
Experiment in all cases: DTP human tumour cell line panel, 48 h
UO-31 = tested on: UO-31
A498 = tested on: A498
SK-MEL-2 = tested on: SK-MEL-2
HCT-116 = tested on: HCT-116
RPMI-8226 = tested on: RPMI-8226
OVCAR-4 = tested on: OVCAR-4
EKVX = tested on: EKVX
PC-3 = tested on: PC-3
MOLT-4 = tested on: MOLT-4
SK-MEL-28 = tested on: SK-MEL-28
NCI-H23 = tested on: NCI-H23
HCT-15 = tested on: HCT-15
SNB-19 = tested on: SNB-19
786-0 = tested on: 786-0
A549 = tested on: A549
HT-29 = tested on: HT-29
OVCAR-3 = tested on: OVCAR-3
SF-539 = tested on: SF-539
HOP-62 = tested on: HOP-62

SMILES | GI50 (UO-31) | GI50 (A498) | GI50 (SK-MEL-2) | GI50 (HCT-116) | GI50 (RPMI-8226) | GI50 (OVCAR-4) | GI50 (EKVX) | GI50 (PC-3) | GI50 (MOLT-4) | GI50 (SK-MEL-28) | GI50 (NCI-H23) | GI50 (HCT-15) [µM] | GI50 (SNB-19) | GI50 (786-0) | GI50 (A549) | GI50 (HT-29) | GI50 (OVCAR-3) | GI50 (SF-539) | GI50 (HOP-62)
Cc1sc(/N=C/c2c[nH]c3ccccc23)c(C#N)c1C | 48 µM (inactive) | 28.7 µM (inactive) | 30.5 µM (inactive) | 23.4 µM (inactive) | 19.7 µM (inactive) | 35.2 µM (inactive) | 67.9 µM (inactive) | 45.7 µM (inactive) | 23 µM (inactive) | > 100 µM (inactive) | 54.1 µM (inactive) | 24 | 61.2 µM (inactive) | 27.4 µM (inactive) | 65 µM (inactive) | 6.89 µM (inactive) | 11.2 µM (inactive) | 40.4 µM (inactive) | 34.2 µM (inactive)
C=C1CCCCCCCCCCC12SCCC2CCCCSC (stereo not given) | 35 µM (inactive) | 20.8 µM (inactive) | 17.5 µM (inactive) | 17.8 µM (inactive) | 24.4 µM (inactive) | 39.8 µM (inactive) | 34.6 µM (inactive) | 22.6 µM (inactive) | 21.3 µM (inactive) | 26.5 µM (inactive) | 25.7 µM (inactive) | 26 | 21.8 µM (inactive) | 29.2 µM (inactive) | 34.3 µM (inactive) | 22.3 µM (inactive) | 16.7 µM (inactive) | 20.6 µM (inactive) | 20 µM (inactive)
O=C(O)c1cncc(C(=O)O)c1 | > 100 µM (inactive) | > 100 µM (inactive) | > 100 µM (inactive) | > 100 µM (inactive) | > 100 µM (inactive) | > 100 µM (inactive) | > 100 µM (inactive) | > 100 µM (inactive) | > 100 µM (inactive) | > 100 µM (inactive) | > 100 µM (inactive) | > 100 | > 100 µM (inactive) | > 100 µM (inactive) | > 100 µM (inactive) | > 100 µM (inactive) | > 100 µM (inactive) | > 100 µM (inactive) | > 100 µM (inactive)
CCOC(=O)CCCc1cc(O)c2c(C)c3[nH]c4ccc(Cl)cc4c3c(C)c2n1 | 20.1 µM (inactive) | 15.3 µM (inactive) | 26.9 µM (inactive) | 34.8 µM (inactive) | 32.6 µM (inactive) | 23.7 µM (inactive) | 79.1 µM (inactive) | 28.8 µM (inactive) | 49.8 µM (inactive) | 28.3 µM (inactive) | 50.2 µM (inactive) | 31.5 | 23.7 µM (inactive) | 20.4 µM (inactive) | 19.6 µM (inactive) | 23.7 µM (inactive) | 17.7 µM (inactive) | 14.6 µM (inactive) | 20.7 µM (inactive)
COc1ccc(O[C@H](COCc2ccccc2)C[C@@H]2COC(C)(C)O2)cc1 | > 100 µM (inactive) | > 100 µM (inactive) | > 100 µM (inactive) | > 100 µM (inactive) | > 100 µM (inactive) | > 100 µM (inactive) | > 100 µM (inactive) | > 100 µM (inactive) | > 100 µM (inactive) | > 100 µM (inactive) | > 100 µM (inactive) | > 100 | > 100 µM (inactive) | > 100 µM (inactive) | > 100 µM (inactive) | > 100 µM (inactive) | > 100 µM (inactive) | > 100 µM (inactive) | > 100 µM (inactive)
O=[N+]([O-])/C(C(Cl)=C(Cl)Cl)=C(\Nc1cccc2ccccc12)n1nnc2ccccc21 | 98.4 µM (inactive) | 33.5 µM (inactive) | 38.4 µM (inactive) | 34.1 µM (inactive) | 23.3 µM (inactive) | 33.3 µM (inactive) | > 100 µM (inactive) | 47.1 µM (inactive) | – | > 100 µM (inactive) | 37.6 µM (inactive) | 58.2 | 32.9 µM (inactive) | > 100 µM (inactive) | 77.3 µM (inactive) | 63.5 µM (inactive) | 46.8 µM (inactive) | > 100 µM (inactive) | 32.4 µM (inactive)
O=C1N[C@@H]2O[C@H](CNC(=O)c3cc(Br)c[nH]3)C[C@]2(O)N1.O=C1N[C@H]2O[C@H](CNC(=O)c3cc(Br)c[nH]3)C[C@@]2(O)N1 | > 100 µM (inactive) | > 100 µM (inactive) | > 100 µM (inactive) | > 100 µM (inactive) | > 100 µM (inactive) | > 100 µM (inactive) | > 100 µM (inactive) | > 100 µM (inactive) | > 100 µM (inactive) | > 100 µM (inactive) | > 100 µM (inactive) | > 100 | > 100 µM (inactive) | > 100 µM (inactive) | > 100 µM (inactive) | > 100 µM (inactive) | > 100 µM (inactive) | > 100 µM (inactive) | > 100 µM (inactive)
Oc1cc(Cl)cc2cc(Cl)cnc12 | 3.21 µM (inactive) | 12.5 µM (inactive) | – | 2.67 µM (inactive) | 2.59 µM (inactive) | 1.55 µM (inactive) | 2.85 µM (inactive) | 2.94 µM (inactive) | 2.89 µM (inactive) | 5.12 µM (inactive) | 2.75 µM (inactive) | 0.598 | 4 µM (inactive) | 23 µM (inactive) | 3.22 µM (inactive) | 22.8 µM (inactive) | 0.582 µM (active) | 3.24 µM (inactive) | 7.41 µM (inactive)
O=c1[nH]nc(Cc2ccccc2)n1/N=C/c1ccncc1 | > 100 µM (inactive) | 39 µM (inactive) | – | > 100 µM (inactive) | > 100 µM (inactive) | > 100 µM (inactive) | > 100 µM (inactive) | > 100 µM (inactive) | > 100 µM (inactive) | > 100 µM (inactive) | > 100 µM (inactive) | > 100 | > 100 µM (inactive) | > 100 µM (inactive) | > 100 µM (inactive) | > 100 µM (inactive) | > 100 µM (inactive) | > 100 µM (inactive) | 48.2 µM (inactive)
NC1=Nc2ncccc2C(=O)NN1 | > 10 µM (inactive) | > 10 µM (inactive) | > 10 µM (inactive) | > 10 µM (inactive) | > 10 µM (inactive) | – | > 10 µM (inactive) | > 10 µM (inactive) | > 10 µM (inactive) | > 10 µM (inactive) | > 10 µM (inactive) | > 10 | > 10 µM (inactive) | > 10 µM (inactive) | > 10 µM (inactive) | > 10 µM (inactive) | > 10 µM (inactive) | > 10 µM (inactive) | > 10 µM (inactive)
COC(=O)C12CCC(C(=O)OC)(Cc3c(c4ccccc4n3S(=O)(=O)c3ccccc3)C1)C2=O (stereo not given) | > 100 µM (inactive) | > 100 µM (inactive) | > 100 µM (inactive) | – | > 100 µM (inactive) | > 61.7 µM (inactive) | > 100 µM (inactive) | > 63.5 µM (inactive) | – | > 100 µM (inactive) | > 100 µM (inactive) | > 100 | > 56.4 µM (inactive) | > 42.1 µM (inactive) | > 46 µM (inactive) | > 46.3 µM (inactive) | > 61.8 µM (inactive) | > 40.6 µM (inactive) | > 100 µM (inactive)
O=c1[nH]c2ccccc2c(=O)n1/N=C/c1ccc(O)cc1 | > 100 µM (inactive) | > 100 µM (inactive) | 66.7 µM (inactive) | > 100 µM (inactive) | > 100 µM (inactive) | – | > 100 µM (inactive) | 73.5 µM (inactive) | > 100 µM (inactive) | > 100 µM (inactive) | > 100 µM (inactive) | > 100 | 36 µM (inactive) | 30.8 µM (inactive) | > 100 µM (inactive) | > 100 µM (inactive) | > 100 µM (inactive) | 66.5 µM (inactive) | 20.9 µM (inactive)
COc1ccc2c(O)c(Oc3ccc(Cl)cc3)c(=O)oc2c1 | 27.5 µM (inactive) | 38.5 µM (inactive) | – | > 100 µM (inactive) | > 100 µM (inactive) | > 100 µM (inactive) | > 100 µM (inactive) | > 100 µM (inactive) | > 100 µM (inactive) | > 100 µM (inactive) | > 100 µM (inactive) | 41.4 | 31.4 µM (inactive) | > 100 µM (inactive) | > 100 µM (inactive) | > 100 µM (inactive) | 83.9 µM (inactive) | > 100 µM (inactive) | > 100 µM (inactive)
n1onc2c1NC1Nc3nonc3NC1N2 (stereo not given) | > 100 µM (inactive) | > 100 µM (inactive) | – | > 100 µM (inactive) | > 100 µM (inactive) | > 100 µM (inactive) | > 100 µM (inactive) | > 100 µM (inactive) | > 100 µM (inactive) | > 100 µM (inactive) | > 100 µM (inactive) | > 100 | 27.7 µM (inactive) | > 100 µM (inactive) | > 100 µM (inactive) | > 100 µM (inactive) | > 100 µM (inactive) | > 100 µM (inactive) | > 100 µM (inactive)
Nc1c(S(=O)(=O)O)cc(S(=O)(=O)O)c2ccc(/N=N/c3ccccc3)c(O)c12 | > 100 µM (inactive) | > 100 µM (inactive) | > 100 µM (inactive) | > 100 µM (inactive) | > 100 µM (inactive) | > 100 µM (inactive) | > 100 µM (inactive) | > 100 µM (inactive) | – | > 100 µM (inactive) | > 100 µM (inactive) | > 100 | > 100 µM (inactive) | > 100 µM (inactive) | > 100 µM (inactive) | > 100 µM (inactive) | > 100 µM (inactive) | > 100 µM (inactive) | > 100 µM (inactive)
